Source: PubChem BioAssay AID839 (SRMLSC, 2007)
The source made the active and inactive calls. The rule behind the calls is not given here.

Experiment: yeast growth inhibition, transport mutant vs wild type, confirmation, post-Golgi transport mutant, OD600 growth rate (AID 839)
Settings: yeast transport mutant vs control strains, stronger effect = higher value
[1] = measured here: mutant growth inhibition 20 uM, at 20 µM
[2] = measured here: wild type growth inhibition 20 uM, at 20 µM
[3] = measured here: wild type growth inhibition 40 uM, at 40 µM

Structure (SMILES): O=C(OCn1ncc(Cl)c(Cl)c1=O)c1ccc(C(F)(F)F)cc1
- growth inhibition (at 40 µM): 46.7%
- growth inhibition [1]: 50.9%
- growth inhibition [2]: 13.4%
- growth inhibition [3]: 16.2%

Structure (SMILES): CCOC(=O)COc1ccccc1C1Nc2ccccc2C(=O)N1c1cccc(Cl)c1 (stereo unspecified)
- growth inhibition (at 40 µM): 21.1%
- growth inhibition [1]: 19.4%
- growth inhibition [2]: 13%
- growth inhibition [3]: 24.8%

Structure (SMILES): Clc1cc(Br)ccc1OCCOCCN1CCOCC1
- growth inhibition (at 40 µM): 8.89%
- growth inhibition [1]: 8.52%
- growth inhibition [2]: 2.58%
- growth inhibition [3]: 3.79%

Structure (SMILES): N=c1c2c(-c3ccccc3)c(-c3ccccc3)n(Cc3ccco3)c2ncn1Cc1ccccc1
- growth inhibition (at 40 µM): 38.2%
- growth inhibition [1]: 8.14%
- growth inhibition [2]: 9.7%
- growth inhibition [3]: 12.7%

Structure (SMILES): CC1CCCN(CCOCCOc2ccc(Cl)cc2Br)C1 (stereo unspecified)
- growth inhibition (at 40 µM): 53.2%
- growth inhibition [1]: 23.4%
- growth inhibition [2]: 8.13%
- growth inhibition [3]: 12.7%

Structure (SMILES): O=S(=O)(c1ccc(Cl)cc1)N1CCN(C2CCN(Cc3ccccc3)CC2)CC1
- growth inhibition (at 40 µM): 10.4%
- growth inhibition [1]: 7.74%
- growth inhibition [2]: 0.396%
- growth inhibition [3]: 3.66%

Structure (SMILES): CC1CN(CCCCOc2ccc(C(C)C)cc2)CC(C)O1 (stereo unspecified)
- growth inhibition (at 40 µM): 26.4%
- growth inhibition [1]: 12.1%
- growth inhibition [2]: 2.42%
- growth inhibition [3]: 7.83%

Structure (SMILES): CC1CC(C)CN(CCOc2ccc(Cl)cc2Cl)C1 (stereo unspecified)
- growth inhibition (at 40 µM): 46.7%
- growth inhibition [1]: 30.7%
- growth inhibition [2]: 8.64%
- growth inhibition [3]: 14.7%

Structure (SMILES): C=C(C)C1CC=C(CN2CC(C)OC(C)C2)CC1 (stereo unspecified)
- growth inhibition (at 40 µM): 4.31%
- growth inhibition [1]: 11.8%
- growth inhibition [2]: 13.7%
- growth inhibition [3]: 1.76%

Structure (SMILES): C=C(C)C1CC=C(CN2CCC(C(=O)OCC)CC2)CC1 (stereo unspecified)
- growth inhibition (at 40 µM): 1.06% (inactive)
- growth inhibition [1]: -2.77%
- growth inhibition [2]: 0.148%
- growth inhibition [3]: 1.89%

Structure (SMILES): O=C(COc1ccc(Br)cc1F)NC1CCN(Cc2ccccc2)CC1
- growth inhibition (at 40 µM): 27.4%
- growth inhibition [1]: 12.6%
- growth inhibition [2]: 2.81%
- growth inhibition [3]: 5.41%

Structure (SMILES): CC(C)c1ccc(C(=O)CSc2n[nH]c(-c3ccncc3)n2)cc1
- growth inhibition (at 40 µM): 12.5%
- growth inhibition [1]: 7.43%
- growth inhibition [2]: 4.42%
- growth inhibition [3]: 13.6%

Structure (SMILES): O=C(COc1ccc(Cl)cc1Cl)NCCCN1CCOCC1
- growth inhibition (at 40 µM): 6.19%
- growth inhibition [1]: 7.28%
- growth inhibition [2]: 3.8%
- growth inhibition [3]: 6.18%

Structure (SMILES): Cc1ccc(C(=O)c2c(NC(=O)c3ccncc3)sc3c2CCCC3)cc1
- growth inhibition (at 40 µM): 14.7%
- growth inhibition [1]: 19.8%
- growth inhibition [2]: 13.5%
- growth inhibition [3]: 18.9%

Structure (SMILES): O=C(C1COc2ccccc2O1)N1CCN(Cc2ccc3c(c2)OCO3)CC1 (stereo unspecified)
- growth inhibition (at 40 µM): 7.29%
- growth inhibition [1]: 6.43%
- growth inhibition [2]: -1.59%
- growth inhibition [3]: 5.57%

Structure (SMILES): Clc1ccc(Cn2nnc(-c3ccc(CN4CCOCC4)cc3)n2)cc1
- growth inhibition (at 40 µM): 26.7%
- growth inhibition [1]: 11.9%
- growth inhibition [2]: 8.16%
- growth inhibition [3]: 12.6%

Structure (SMILES): Cc1ccc(Cl)c(OCCCCN(C)Cc2ccccc2)c1
- growth inhibition (at 40 µM): 72.6%
- growth inhibition [1]: 31.6%
- growth inhibition [2]: 11.1%
- growth inhibition [3]: 22.1%

Structure (SMILES): Cc1nc(NC(=O)c2ccccc2)sc1-c1csc(NCc2ccccc2)n1
- growth inhibition (at 40 µM): 32.7%
- growth inhibition [1]: 20%
- growth inhibition [2]: 6.67%
- growth inhibition [3]: 15%

Structure (SMILES): CC1CN(CC(O)COc2ccc(C(C)C)cc2)CC(C)O1 (stereo unspecified)
- growth inhibition (at 40 µM): 8.85%
- growth inhibition [1]: 5.56%
- growth inhibition [2]: -2.84%
- growth inhibition [3]: -1.47%

Structure (SMILES): Cc1ccc(CN2CCN(/N=C/c3cc(Br)ccc3O)CC2)cc1
- growth inhibition (at 40 µM): 21.1%
- growth inhibition [1]: 18.9%
- growth inhibition [2]: 7.91%
- growth inhibition [3]: 7.23%

Structure (SMILES): Cc1ccc(OCC(O)CN2CCN(Cc3ccc4c(c3)OCO4)CC2)c(C)c1 (stereo unspecified)
- growth inhibition (at 40 µM): 33%
- growth inhibition [1]: 12.9%
- growth inhibition [2]: 2.63%
- growth inhibition [3]: 10%

Structure (SMILES): CCCCCOc1ccc(Cl)cc1CN1CCOCC1
- growth inhibition (at 40 µM): 17.8%
- growth inhibition [1]: 26%
- growth inhibition [2]: 7.83%
- growth inhibition [3]: -7.6%

Structure (SMILES): CCCCCCOc1ccc(CN2CCN(CCO)CC2)cc1
- growth inhibition (at 40 µM): 33.4%
- growth inhibition [1]: 20.7%
- growth inhibition [2]: 7.37%
- growth inhibition [3]: 13.6%

Structure (SMILES): Cc1cc(C(C)(C)C)ccc1OCCN1CCCC1
- growth inhibition (at 40 µM): 18.2%
- growth inhibition [1]: 18.4%
- growth inhibition [2]: 7.77%
- growth inhibition [3]: 7.54%
